# Legend:
# Format in all cases: in vivo
# [1] = system: barnyardgrass (Echinochloa crus-galli); experiment: Test A pre-/postemergence: barnyardgrass; settings: for Barnyardgrass plant response rating: Postemergence; for Plant response rating, Barnyardgrass: Preemergence
# Outline: (§1)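 Seeds were sown in loam/sand blend and sprayed preemergence (directed soil spray) and, simultaneously, postemergence at 2–10 cm, one- to two-leaf stage, using compounds in non-phytotoxic solvent with surfactant. After ~10 days in greenhouse, injury was rated visually versus untreated controls, 0 (no effect) to 100 (complete control).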
# [2] = system: foxtail, giant (giant foxtail, Setaria faberii); experiment: Test A pre-/postemergence: foxtail, giant; settings: for Foxtail, Giant plant response rating: Postemergence; for Plant response rating, Foxtail, Giant: Preemergence
# Outline: as §1
# [3] = system: pigweed (Amaranthus retroflexus); experiment: Test A pre-/postemergence: pigweed; settings: for Pigweed plant response rating: visual rating on 0 to 100 scale (0 no effect, 100 complete control), approximately ten days
# Outline: as §1
# [4] = system: velvetleaf (Abutilon theophrasti); experiment: Test A pre-/postemergence: velvetleaf; settings: for Velvetleaf plant response rating: visual rating on 0 to 100 scale (0 no effect, 100 complete control), approximately ten days
# Outline: as §1
# [5] = system: blackgrass (Alopecurus myosuroides); experiment: Test C pre-/postemergence: blackgrass
# Outline: (§2)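 Preemergence on seeds in loam/sand, postemergence on 2–18 cm (1–4-leaf) plants in peat-based medium; compounds in non-phytotoxic solvent with surfactant. After 13–15 days in greenhouse, visual rating versus controls, 0 (no effect) to 100 (complete control).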
# [6] = system: winter wheat (Triticum aestivum); experiment: Test C pre-/postemergence: winter wheat
# Outline: as §2
# wild oat (Avena fatua) = experiment: Test C pre-/postemergence: wild oat
# Outline: as §2
# corn (Zea mays) = experiment: Test C pre-/postemergence: corn
# Outline: as §2
# [7] = system: lambsquarters (Chenopodium album); experiment: Test C pre-/postemergence: lambsquarters
# Outline: as §2
# [8] = system: morningglory (Ipomoea coccinea); experiment: Test C pre-/postemergence: morningglory
# Outline: as §2
# [9] = system: nutsedge, yellow (yellow nutsedge, Cyperus esculentus); experiment: Test C pre-/postemergence: nutsedge, yellow
# Outline: as §2
# [10] = system: chickweed (common chickweed, Stellaria media); experiment: Test C postemergence: chickweed
# Outline: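 Crop and weed plants were grown in peat-vermiculite medium and treated postemergence at the 1- to 4-leaf stage (2-18 cm tall). After 13-15 days in a greenhouse, each species was rated visually against untreated controls on a 0-100 scale (0 no effect, 100 complete control).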
# [11] = 125 g ai/ha, 0 to 100 scale, 0 is no effect, 100 is complete control
# [12] = 500 g ai/ha, visual rating on 0 to 100 scale (0 no effect, 100 complete control), approximately ten days
# [13] = 125 g ai/ha, 0 to 100 scale where 0 is no effect and 100 is complete control
# [14] = 500 g ai/ha, 0 to 100 scale (0 no effect, 100 complete control)
# [15] = Postemergence, 125 g ai/ha, 0 to 100 scale, 0 is no effect, 100 is complete control
# [16] = Preemergence, 125 g ai/ha, 0 to 100 scale where 0 is no effect and 100 is complete control
# [17] = Preemergence, 500 g ai/ha, 0 to 100 scale (0 no effect, 100 complete control)
# [18] = Postemergence, 31 g ai/ha, scale 0 to 100 (0 no effect, 100 complete control)
# [19] = Postemergence, 62 g ai/ha, scale 0 to 100 (0 no effect, 100 complete control)
# [20] = Postemergence, 125 g ai/ha, scale 0 to 100, 0 no effect, 100 complete control
# [21] = Postemergence, 250 g ai/ha, scale 0 to 100
# [22] = Preemergence, 31 g ai/ha, scale of 0 to 100, 0 is no effect, 100 is complete control
# [23] = Preemergence, 62 g ai/ha, scale of 0 to 100, 0 is no effect, 100 is complete control
# [24] = Preemergence, 125 g ai/ha, scale 0 to 100, 0 no effect, 100 complete control
# [25] = Preemergence, 250 g ai/ha, scale 0 to 100, 0 no effect, 100 complete control
# [26] = 31 g ai/ha, scale 0 to 100 (0 no effect, 100 complete control)
# [27] = 62 g ai/ha, scale 0 to 100 (0 no effect, 100 complete control)
# [28] = 125 g ai/ha, scale 0 to 100, 0 no effect, 100 complete control
smiles,measurement,setting,value
Fc1ccc(-n2nc(Cc3ccnc(C(F)(F)F)c3)c(OCC(F)(F)F)n2)cc1 [Compound 142],Barnyardgrass plant response rating,[1]; [11],100
same,Barnyardgrass plant response rating,[1]; [12],100
same,"Plant response rating, Barnyardgrass",[1]; [13],100
same,"Plant response rating, Barnyardgrass",[1]; [14],100
same,"Foxtail, Giant plant response rating",[2]; [11],100
same,"Foxtail, Giant plant response rating",[2]; [12],100
same,"Plant response rating, Foxtail, Giant",[2]; [13],100
same,"Plant response rating, Foxtail, Giant",[2]; [14],100
same,"Plant response rating, Pigweed",[3]; [15],100
same,Pigweed plant response rating,"[3]; Postemergence, 500 g ai/ha",100
same,"Plant response rating, Pigweed",[3]; [16],100
same,"Plant response rating, Pigweed",[3]; [17],100
same,"Plant response rating, Velvetleaf",[4]; [15],100
same,Velvetleaf plant response rating,"[4]; Postemergence, 500 g ai/ha",100
same,"Plant response rating, Velvetleaf",[4]; [16],60
same,"Plant response rating, Velvetleaf",[4]; [17],90
same,"Plant response rating, Blackgrass",[5]; [18],55
same,"Plant response rating, Blackgrass",[5]; [19],60
same,"Plant response rating, Blackgrass",[5]; [20],80
same,"Plant response rating, Blackgrass",[5]; [21],90
same,"Plant response rating, Blackgrass",[5]; [22],90
same,"Plant response rating, Blackgrass",[5]; [23],90
same,"Plant response rating, Blackgrass",[5]; [24],90
same,"Plant response rating, Blackgrass",[5]; [25],90
same,"Plant response rating, Wheat",[6]; [18],15
same,"Plant response rating, Wheat",[6]; [19],25
same,"Plant response rating, Wheat",[6]; [20],40
same,"Plant response rating, Wheat",[6]; [21],45
same,"Plant response rating, Wheat",[6]; [23],5
same,"Plant response rating, Wheat",[6]; [24],35
same,"Plant response rating, Wheat",[6]; [25],50
same,"Plant response rating, Oat, Wild",wild oat (Avena fatua); [18],35
same,"Plant response rating, Oat, Wild",wild oat (Avena fatua); [19],45
same,"Plant response rating, Oat, Wild",wild oat (Avena fatua); [20],70
same,"Plant response rating, Oat, Wild",wild oat (Avena fatua); [21],70
same,"Plant response rating, Oat, Wild",wild oat (Avena fatua); [22],85
same,"Plant response rating, Oat, Wild",wild oat (Avena fatua); [23],85
same,"Plant response rating, Oat, Wild",wild oat (Avena fatua); [24],85
same,"Plant response rating, Oat, Wild",wild oat (Avena fatua); [25],90
same,"Plant response rating, Corn",corn (Zea mays); [18],30
same,"Plant response rating, Corn",corn (Zea mays); [19],35
same,"Plant response rating, Corn",corn (Zea mays); [20],35
same,"Plant response rating, Corn",corn (Zea mays); [21],45
same,"Plant response rating, Corn",corn (Zea mays); [22],0
same,"Plant response rating, Corn",corn (Zea mays); [23],5
same,"Plant response rating, Corn",corn (Zea mays); [24],20
same,"Plant response rating, Corn",corn (Zea mays); [25],30
same,"Plant response rating, Lambsquarters",[7]; [18],80
same,"Plant response rating, Lambsquarters",[7]; [19],98
same,"Plant response rating, Lambsquarters",[7]; [20],98
same,"Plant response rating, Lambsquarters",[7]; [21],98
same,"Plant response rating, Lambsquarters",[7]; [22],80
same,"Plant response rating, Lambsquarters",[7]; [23],90
same,"Plant response rating, Lambsquarters",[7]; [24],95
same,"Plant response rating, Lambsquarters",[7]; [25],98
same,"Plant response rating, Morningglory",[8]; [18],60
same,"Plant response rating, Morningglory",[8]; [20],60
same,"Plant response rating, Morningglory",[8]; [21],80
same,"Plant response rating, Morningglory",[8]; [23],35
same,"Plant response rating, Nutsedge, Yellow",[9]; [18],5
same,"Plant response rating, Nutsedge, Yellow",[9]; [19],5
same,"Plant response rating, Nutsedge, Yellow",[9]; [20],15
same,"Plant response rating, Nutsedge, Yellow",[9]; [21],20
same,"Plant response rating, Nutsedge, Yellow",[9]; [22],0
same,"Plant response rating, Nutsedge, Yellow",[9]; [24],0
same,"Plant response rating, Nutsedge, Yellow",[9]; [25],0
same,"Plant response rating, Chickweed",[10]; [26],85
same,"Plant response rating, Chickweed",[10]; [27],98
same,"Plant response rating, Chickweed",[10]; [28],98
same,"Plant response rating, Chickweed","[10]; 250 g ai/ha, scale 0 to 100",98
Cc1nn(-c2ccc(F)c(F)c2)nc1Oc1ccnc(C(F)(F)F)c1 [Compound 145],Barnyardgrass plant response rating,[1]; [11],80
same,Barnyardgrass plant response rating,[1]; [12],90
same,"Plant response rating, Barnyardgrass",[1]; [13],100
same,"Plant response rating, Barnyardgrass",[1]; [14],100
same,"Foxtail, Giant plant response rating",[2]; [11],90
same,"Foxtail, Giant plant response rating",[2]; [12],100
same,"Plant response rating, Foxtail, Giant",[2]; [13],100
same,"Plant response rating, Foxtail, Giant",[2]; [14],100
same,"Plant response rating, Pigweed",[3]; [15],100
same,Pigweed plant response rating,"[3]; Postemergence, 500 g ai/ha",100
same,"Plant response rating, Pigweed",[3]; [16],100
same,"Plant response rating, Pigweed",[3]; [17],100
same,"Plant response rating, Velvetleaf",[4]; [15],100
same,Velvetleaf plant response rating,"[4]; Postemergence, 500 g ai/ha",100
same,"Plant response rating, Velvetleaf",[4]; [16],50
same,"Plant response rating, Velvetleaf",[4]; [17],80
same,"Plant response rating, Blackgrass",[5]; [18],10
same,"Plant response rating, Blackgrass",[5]; [19],60
same,"Plant response rating, Blackgrass",[5]; [20],70
same,"Plant response rating, Blackgrass",[5]; [21],70
same,"Plant response rating, Blackgrass",[5]; [22],85
same,"Plant response rating, Blackgrass",[5]; [23],90
same,"Plant response rating, Blackgrass",[5]; [24],90
same,"Plant response rating, Blackgrass",[5]; [25],90
same,"Plant response rating, Wheat",[6]; [18],5
same,"Plant response rating, Wheat",[6]; [19],15
same,"Plant response rating, Wheat",[6]; [20],30
same,"Plant response rating, Wheat",[6]; [21],40
same,"Plant response rating, Wheat",[6]; [23],5
same,"Plant response rating, Wheat",[6]; [24],5
same,"Plant response rating, Wheat",[6]; [25],50
same,"Plant response rating, Oat, Wild",wild oat (Avena fatua); [18],20
same,"Plant response rating, Oat, Wild",wild oat (Avena fatua); [19],40
same,"Plant response rating, Oat, Wild",wild oat (Avena fatua); [20],60
same,"Plant response rating, Oat, Wild",wild oat (Avena fatua); [21],80
same,"Plant response rating, Oat, Wild",wild oat (Avena fatua); [22],45
same,"Plant response rating, Oat, Wild",wild oat (Avena fatua); [23],70
same,"Plant response rating, Oat, Wild",wild oat (Avena fatua); [24],90
same,"Plant response rating, Oat, Wild",wild oat (Avena fatua); [25],90
same,"Plant response rating, Corn",corn (Zea mays); [18],35
same,"Plant response rating, Corn",corn (Zea mays); [19],45
same,"Plant response rating, Corn",corn (Zea mays); [21],50
same,"Plant response rating, Corn",corn (Zea mays); [22],0
same,"Plant response rating, Corn",corn (Zea mays); [23],10
same,"Plant response rating, Corn",corn (Zea mays); [24],25
same,"Plant response rating, Corn",corn (Zea mays); [25],60
same,"Plant response rating, Lambsquarters",[7]; [18],95
same,"Plant response rating, Lambsquarters",[7]; [19],95
same,"Plant response rating, Lambsquarters",[7]; [20],95
same,"Plant response rating, Lambsquarters",[7]; [21],95
same,"Plant response rating, Lambsquarters",[7]; [22],55
same,"Plant response rating, Lambsquarters",[7]; [23],85
same,"Plant response rating, Lambsquarters",[7]; [24],95
same,"Plant response rating, Lambsquarters",[7]; [25],98
same,"Plant response rating, Morningglory",[8]; [18],90
same,"Plant response rating, Morningglory",[8]; [19],90
same,"Plant response rating, Morningglory",[8]; [20],95
same,"Plant response rating, Morningglory",[8]; [21],98
same,"Plant response rating, Morningglory",[8]; [22],15
same,"Plant response rating, Morningglory",[8]; [23],20
same,"Plant response rating, Morningglory",[8]; [24],70
same,"Plant response rating, Morningglory",[8]; [25],85
same,"Plant response rating, Nutsedge, Yellow",[9]; [18],5
same,"Plant response rating, Nutsedge, Yellow",[9]; [19],10
same,"Plant response rating, Nutsedge, Yellow",[9]; [20],15
same,"Plant response rating, Nutsedge, Yellow",[9]; [21],15
same,"Plant response rating, Nutsedge, Yellow",[9]; [24],5
same,"Plant response rating, Nutsedge, Yellow",[9]; [25],10
same,"Plant response rating, Chickweed",[10]; [26],75
same,"Plant response rating, Chickweed",[10]; [27],85
same,"Plant response rating, Chickweed",[10]; [28],98
same,"Plant response rating, Chickweed","[10]; 250 g ai/ha, scale 0 to 100",100

# Reference: patent US9302999B2, “Substituted triazoles as herbicides” (E. I. DU PONT DE NEMOURS AND COMPANY, priority 2012, dated 2016)
